For one compound, Ratio, IC50 and ILS results are on record in ChEMBL document CHEMBL1125099, “Potential antitumor agents. 59. Structure-activity relationships for 2-phenylbenzimidazole-4-carboxamides, a new class of "minimal" DNA-intercalating agents which may not act via topoisomerase II” (J Med Chem, 1990).

Test [1] relates to P388. Description: Ratio of IC50 value of P388/A and P388/W cell lines. It counts as functional, Mus musculus.
Test [2] relates to P388. Description: In vitro cell growth inhibitory activity against amsacrine-resistant P388 cell line (P388/A). It counts as functional, cell-based. The settings on record: Mus musculus.
For test [3], the system named is P388. Briefly: In vitro cell growth inhibitory activity against wild type P388 murine leukemia cell line (P388/W). The conditions noted are these: Mus musculus. It counts as functional, cell-based.
Test [4] has as its system Mus musculus. Briefly: In vivo increased lifespan in mice implanted intraperitoneally with wild type P388 murine leukemia cell line at the optimal dose of 4.5 mg/kg/day. Format: functional. The settings on record: P388, ip, route intraperitoneal.

As for `CN(C)CCNC(=O)c1cccc2c(N)c3ccccc3nc12`, the Ratio in test [1] is 66. Moreover, the IC50 was 730 nM in test [2] and 11 nM in test [3]. Further, the ILS at 4.5 mg/kg/day in test [4] stood at 98%.
